Data taken from article PMC2783949 (Bioorganic & medicinal chemistry, 2009).
“Also recorded” adds a separate entry of the source.

Columns and labels:
solid tumors = settings: mice; cited from earlier work
murine leukemias = settings: cited from earlier work
[1] = Oxidation of H-phosphinate 2 into PALA, 31P-NMR monitoring; type: physicochemical; settings: neutralized compound, over a period of two weeks
[2] = target: catalytic subunit of E. coli ATCase (Escherichia coli, UniProt P0A786); settings: for Inhibition Constant (Ki): pH 8.3; for mode of inhibition: relative to carbamyl phosphate
Chain of catalytic subunit of E. coli ATCase (P0A786 2-311): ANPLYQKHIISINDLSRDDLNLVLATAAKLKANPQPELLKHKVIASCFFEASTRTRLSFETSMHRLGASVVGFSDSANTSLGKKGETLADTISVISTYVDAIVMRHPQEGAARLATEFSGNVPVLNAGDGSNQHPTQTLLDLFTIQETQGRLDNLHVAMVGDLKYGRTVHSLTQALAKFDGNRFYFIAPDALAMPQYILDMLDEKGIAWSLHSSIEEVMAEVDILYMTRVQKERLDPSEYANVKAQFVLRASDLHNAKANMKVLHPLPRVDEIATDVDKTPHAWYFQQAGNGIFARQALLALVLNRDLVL

| SMILES | inhibition of ATCase (in words) [2] | further results |
| --- | --- | --- |
| O=C(O)C[C@H](NC(=O)CP(=O)(O)O)C(=O)O [Compound 1, N-phosphonacetyl-L-aspartate] |  | effect on solid tumors (solid tumors): eradicated solid tumors in mice; effect on murine leukemias (murine leukemias): murine leukemias were resistant |
| O=C(O)C[C@H](NC(=O)C[PH](=O)O)C(=O)O [Compound 2] | good inhibitor; also recorded: submicromolar inhibitors | oxidation of 2 into PALA [1]: could not be detected |
| O=C(O)C[C@H](NC(=O)C[PH](=O)CO)C(=O)O (some centres unmarked) [Compound 3] | submicromolar inhibitors |  |
| O=C(O)C[C@@H](C(=O)O)N1CCP(=O)(O)CC1 [Compound 14] | totally inactive | Inhibition Constant (Ki) [2]: inactive |
| O=C(O)C[C@@H](C(=O)O)N1CP(=O)(O)CC1=O [Compound 19, 2-(3-Hydroxy-3,5-dioxo-3l5-[1,3]azaphospholidin-1-yl)-succinic acid] | inactive | Inhibition Constant (Ki) [2]: inactive |
| O=C(O)C[C@H](NC(=O)CP(=O)(O)CCO)C(=O)O [Compound 22] | significant inhibitory activity | mode of inhibition [2]: uncompetitive |
| O=C(O)C[C@H](NC(=O)CP(=O)(O)CC(=O)O)C(=O)O [Compound 24] |  | mode of inhibition [2]: competitive inhibitor |
| O=C(O)C[C@@H](C(=O)O)N1CCP(=O)(O)CC1=O [Compound 27, 2-(4-Hydroxy-2,4-dioxo-4λ[5]-[1,4]azaphosphinan-1-yl)-succinic acid] | significant inhibition; also recorded: micromolar-level inhibitor | Km(CP)/Ki ([2]; Km of carbamyl phosphate over Ki of inhibitor): 28 |
| O=C(O)C[C@H](NC(=O)OCP(=O)(O)O)C(=O)O [Compound 32, 2-Phosphonomethyl-oxycarbonylamino-succinic acid] | does not inhibit ATCase at all | Inhibition Constant (Ki) [2]: inactive |
| O=C(O)C[C@H](NC(=O)CC(C(=O)O)C(=O)O)C(=O)O [Compound 38] | none of the carboxylates 38, 40, and 42 displayed any significant inhibition |  |
| O=C(O)CC(=O)N[C@@H](CC(=O)O)C(=O)O [Compound 40] | none of the carboxylates 38, 40, and 42 displayed any significant inhibition; also recorded: inactive |  |
| O=C(O)CCC(=O)N[C@@H](CC(=O)O)C(=O)O [Compound 42] | none of the carboxylates 38, 40, and 42 displayed any significant inhibition |  |
| NC(=O)OP(=O)(O)O [carbamyl phosphate] |  | Km ([2]; substrate of ATCase): 28 µM |
